# Values of other authors in US6174886A, “Antipsychotic use of triazolo-pyridazine derivatives” (Merck Sharp & Dohme Ltd., priority 1997, dated 2001).
# Tested on: schizophrenic patients with an acute psychotic episode
smiles,measurement,value
CC(C)(C)OC(=O)c1ncn2c1[C@@H]1CCCN1C(=O)c1c(Br)cccc1-2 [bretazenil],antipsychotic efficacy,moderate antipsychotic efficacy
same,most frequent adverse reaction reported in the study,sedation
